The values that follow come from patent US20220315621A1, “COMPOSITIONS AND METHODS FOR TREATING CNS DISORDERS” (priority 2017, published 2022).

pIC50: −log10 of the molar value. Like-named read-outs stand apart in the source and are kept apart here.

The assay addresses GABAA receptor (rat brain cortical membranes, [35S]-TBPS binding).
The mark [1] stands for this setting: Table I-5, rat brain cortical membranes, 3 nM [35S]-TBPS, in the presence of 5 mM GABA.
Where [2] appears, read: Table I-6, rat brain cortical membranes, 3 nM [35S]-TBPS, in the presence of 5 mM GABA.
The mark [3] stands for this setting: Table I-4, rat brain cortical membranes, 3 nM [35S]-TBPS, in the presence of 5 mM GABA.

As for `COC[C@@]1(O)CC[C@H]2[C@H](CC[C@@H]3[C@@H]2CC[C@]2(C)[C@@H](C(C)=O)C[C@@H]32)C1` [I-AC11, 1-((1S,2aS,2bR,4aR,6R,8aS,8bR,10aS)-6-hydroxy-6-(methoxymethyl)-10a-methylhexadecahydrocyclobuta[a]phenanthren-1-yl)ethan-1-one], the pIC50 (as a rule, the negative decadic logarithm of the IC50, by convention in mol/L) under setting [1] is 6.00 to 7.00.
Still for that read-out and setting: with `COC[C@@]1(O)CC[C@H]2[C@H](CC[C@@H]3[C@@H]2CC[C@]2(C)[C@@H](C(=O)Cn4cc(C#N)cn4)C[C@@H]32)C1` [I-AC14, 1-(2-((1S,2aS,2bR,4aR,6R,8aS,8bR,10aS)-6-hydroxy-6-(methoxymethyl)-10a-methylhexadecahydrocyclobuta[a]phenanthren-1-yl)-2-oxoethyl)-1H-pyrazole-4-carbonitrile] the figure was 6.00 to 7.00; with `CC(=O)[C@H]1C[C@H]2[C@@H]3CC[C@H]4C[C@](C)(O)CC[C@@H]4[C@H]3CC[C@]12C` [I-AD8, 1-((1S,2aS,2bR,4aS,6R,8aS,8bR,10aS)-6-hydroxy-6,10a-dimethylhexadecahydrocyclobuta[a]phenanthren-1-yl)ethan-1-one], 5.00 to 6.00; with `CC(=O)[C@@H]1C[C@H]2[C@@H]3CC[C@H]4C[C@](C)(O)CC[C@@H]4[C@H]3CC[C@]12C` [I-AD8a, 1-((1R,2aS,2bR,4aS,6R,8aS,8bR,10aS)-6-hydroxy-6,10a-dimethylhexadecahydrocyclobuta[a]phenanthren-1-yl)ethan-1-one], 5.00 to 6.00.
Take `C[C@@]1(O)CC[C@H]2[C@@H](CC[C@@H]3[C@@H]2CC[C@]2(C)[C@@H](C(=O)Cn4cc(C#N)cn4)C[C@@H]32)C1` [I-AD10, 1-(2-((1S,2aS,2bR,4aS,6R,8aS,8bR,10aS)-6-hydroxy-6,10a-dimethylhexadecahydrocyclobuta[a]phenanthren-1-yl)-2-oxoethyl)-1H-pyrazole-4-carbonitrile]: the pIC50 under setting [1] was 5.00 to 6.00.
`CCOC[C@@]1(O)CC[C@H]2[C@@H](CC[C@@H]3[C@@H]2CC[C@]2(C)[C@@H](C(=O)Nc4ccccc4)CCC[C@@H]32)C1` [I-B11, (1S,4aS,4bR,6aS,8R,10aS,10bR,12aS)-8-(ethoxymethyl)-8-hydroxy-12a-methyl-N-phenyloctadecahydrochrysene-1-carboxamide] gave a pIC50 of 7.00 to 8.00.
As to `C[C@@]1(O)CC[C@H]2[C@H](CC[C@@H]3[C@@H]2CC[C@]2(C)[C@H](CO)CCCC[C@@H]32)C1` [I-BA5a, (2R,4aS,4bR,6aS,7R,11aS,11bR,13aR)-7-(hydroxymethyl)-2,6a-dimethyloctadecahydro-1H-cyclohepta[a]phenanthren-2-ol], the pIC50 under setting [2] was 5.00 to 6.00.
The same measure, in the same setting: with `C[C@@]1(O)CC[C@H]2[C@H](CC[C@@H]3[C@@H]2CC[C@]2(C)[C@@H](CO)CCCC[C@@H]32)C1` [I-BA5b, (2R,4aS,4bR,6aS,7S,11aS,11bR,13aR)-7-(hydroxymethyl)-2,6a-dimethyloctadecahydro-1H-cyclohepta[a]phenanthren-2-ol] the figure was 6.00 to 7.00.
The same measure, in the same setting: with `COC[C@H]1CCCC[C@H]2[C@@H]3CC[C@@H]4C[C@](C)(O)CC[C@@H]4[C@H]3CC[C@]12C` [I-BA6, (2R,4aS,4bR,6aS,7S,11aS,11bR,13aR)-7-(methoxymethyl)-2,6a-dimethyloctadecahydro-1H-cyclohepta[a]phenanthren-2-ol] the figure was 6.00 to 7.00.
Same read-out and setting: with `COC[C@@H]1CCCC[C@H]2[C@@H]3CC[C@@H]4C[C@](C)(O)CC[C@@H]4[C@H]3CC[C@]12C` [I-BA6a, (2R,4aS,4bR,6aS,7R,11aS,11bR,13aR)-7-(methoxymethyl)-2,6a-dimethyloctadecahydro-1H-cyclohepta[a]phenanthren-2-ol] the figure was 5.00 to 6.00; with `CC(=O)[C@H]1CCCC[C@H]2[C@@H]3CC[C@@H]4C[C@](C)(O)CC[C@@H]4[C@H]3CC[C@]12C` [I-BA9a, 1-((2R,4aS,4bR,6aS,7S,11aS,11bR,13aR)-2-hydroxy-2,6a-dimethyloctadecahydro-1H-cyclohepta[a]phenanthren-7-yl)ethan-1-one], 7.00 to 8.00; with `C[C@@]1(O)CC[C@H]2[C@H](CC[C@@H]3[C@@H]2CC[C@]2(C)[C@H](O)CCCC[C@@H]32)C1` [I-BA12, (2R,4aS,4bR,6aS,7R,11aS,11bR,13aR)-2,6a-dimethyloctadecahydro-1H-cyclohepta[a]phenanthrene-2,7-diol], 5.00 to 6.00.
With `C[C@@]1(O)CC[C@H]2[C@H](CC[C@@H]3[C@@H]2CC[C@]2(C)[C@@H](C#N)CCCC[C@@H]32)C1` [I-BA16, (2R,4aS,4bR,6aS,7S,11aS,11bR,13aR)-2-hydroxy-2,6a-dimethyloctadecahydro-1H-cyclohepta[a]phenanthrene-7-carbonitrile], the pIC50 under setting [2] was 7.00 to 8.00.
The same measure, in the same setting: with `C[C@@]1(O)CC[C@H]2[C@H](CC[C@@H]3[C@@H]2CC[C@]2(C)[C@H](C#N)CCCC[C@@H]32)C1` [I-BA16a, (2R,4aS,4bR,6aS,7R,11aS,11bR,13aR)-2-hydroxy-2,6a-dimethyloctadecahydro-1H-cyclohepta[a]phenanthrene-7-carbonitrile] the figure was 5.00 to 6.00; with `C[C@@]1(O)CC[C@H]2[C@H](CC[C@@H]3[C@@H]2CC[C@]2(C)[C@@H](C(=O)Nc4ccccc4)CCCC[C@@H]32)C1` [I-BA17, (2R,4aS,4bR,6aS,7S,11aS,11bR,13aR)-2-hydroxy-2,6a-dimethyl-N-phenyloctadecahydro-1H-cyclohepta[a]phenanthrene-7-carboxamide], 7.00 to 8.00; with `C[C@@]1(O)CC[C@H]2[C@H](CC[C@@H]3[C@@H]2CC[C@]2(C)[C@H](C(=O)Nc4ccccc4)CCCC[C@@H]32)C1` [I-BA17a, (2R,4aS,4bR,6aS,7R,11aS,11bR,13aR)-2-hydroxy-2,6a-dimethyl-N-phenyloctadecahydro-1H-cyclohepta[a]phenanthrene-7-carboxamide], 6.00 to 7.00.
On the same count and under the same terms, with `C[C@@]1(O)CC[C@H]2[C@H](CC[C@@H]3[C@@H]2CC[C@]2(C)C[C@@H](C(=O)Nc4ccccc4)CCC[C@@H]32)C1` [I-BC11, (2R,4aS,4bR,6aR,8S,11aS,11bR,13aR)-2-hydroxy-2,6a-dimethyl-N-phenyloctadecahydro-1H-cyclohepta[a]phenanthrene-8-carboxamide] the figure was 5.00 to 6.00.
On the same count and under the same terms, with `C[C@@]1(O)CC[C@H]2[C@H](CC[C@@H]3[C@@H]2CC[C@]2(C)C[C@H](C(=O)Nc4ccccc4)CCC[C@@H]32)C1` [I-BC11a] the figure was 5.00 to 6.00; with `CC(=O)[C@H]1CCC[C@H]2[C@@H]3CC[C@@H]4C[C@](C)(O)CC[C@@H]4[C@H]3CC[C@]2(C)C1` [I-BC14a, 1-((2R,4aS,4bR,6aR,8S,11aS,11bR,13aR)-2-hydroxy-2,6a-dimethyloctadecahydro-1H-cyclohepta[a]phenanthren-8-yl)ethan-1-one], 6.00 to 7.00; with `CC(=O)[C@@H]1CCC[C@H]2[C@@H]3CC[C@@H]4C[C@](C)(O)CC[C@@H]4[C@H]3CC[C@]2(C)C1` [I-BC14b], 5.00 to 6.00.
`C[C@@]1(O)CC[C@H]2[C@H](CC[C@@H]3[C@@H]2CC[C@]2(C)C[C@@H](C(=O)Cn4cc(C#N)cn4)CCC[C@@H]32)C1` [I-BC16, 1-(2-((2R,4aS,4bR,6aR,8S,11aS,11bR,13aR)-2-hydroxy-2,6a-dimethyloctadecahydro-1H-cyclohepta[a]phenanthren-8-yl)-2-oxoethyl)-1H-pyrazole-4-carbonitrile]: under setting [2], the negative logarithm of the IC50 (pIC50) was 6.00 to 7.00.
Still for that read-out and setting: with `C[C@@]1(O)CC[C@H]2[C@H](CC[C@@H]3[C@@H]2CC[C@]2(C)C[C@H](C(=O)Cn4cc(C#N)cn4)CCC[C@@H]32)C1` [I-BC16a, 1-(2-((2R,4aS,4bR,6aR,8R,11aS,11bR,13aR)-2-hydroxy-2,6a-dimethyloctadecahydro-1H-cyclohepta[a]phenanthren-8-yl)-2-oxoethyl)-1H-pyrazole-4-carbonitrile] the figure was 6.00 to 7.00.
Turning to `C[C@@]1(O)CC[C@H]2[C@H](CC[C@@H]3[C@@H]2CC[C@]2(C)[C@@H](CNC(=O)c4ccccc4)CCC[C@@H]32)C1` [I-C4, N-(((1S,4aS,4bR,6aR,8R,10aS,10bR,12aS)-8-hydroxy-8,12a-dimethyloctadecahydrochrysen-1-yl)methyl)benzamide], the pIC50 under setting [3] was 6.00 to 7.00.
Still for that read-out and setting: with `CNC[C@H]1CCC[C@H]2[C@@H]3CC[C@@H]4C[C@](C)(O)CC[C@@H]4[C@H]3CC[C@]12C` [I-C5, (2R,4aS,4bR,6aS,7S,10aS,10bR,12aR)-2,6a-dimethyl-7-((methylamino)methyl)octadecahydrochrysen-2-ol] the figure was 5.00 to 6.00; with `CN(C[C@H]1CCC[C@H]2[C@@H]3CC[C@@H]4C[C@](C)(O)CC[C@@H]4[C@H]3CC[C@]12C)C(=O)c1ccccc1` [I-C6, N-(((1S,4aS,4bR,6aR,8R,10aS,10bR,12aS)-8-hydroxy-8,12a-dimethyloctadecahydrochrysen-1-yl)methyl)-N-methylbenzamide], 6.00 to 7.00; with `CC(=O)[C@H]1CCC[C@H]2[C@@H]3CC[C@@H]4C[C@](C)(O)CC[C@@H]4[C@H]3CC[C@]12C` [I-D7, 1-((1S,4aS,4bR,6aR,8R,10aS,10bR,12aS)-8-hydroxy-8,12a-dimethyloctadecahydrochrysen-1-yl)ethan-1-one], more than 8.00.
Same read-out and setting: with `CC(=O)[C@@H]1CCC[C@H]2[C@@H]3CC[C@@H]4C[C@](C)(O)CC[C@@H]4[C@H]3CC[C@]12C` [I-D7a, 1-((1R,4aS,4bR,6aR,8R,10aS,10bR,12aS)-8-hydroxy-8,12a-dimethyloctadecahydrochrysen-1-yl)ethan-1-one] the figure was 6.00 to 7.00.
